Experimental data from patent publication US20250248973A1, “CANNABINOID RECEPTOR 1 ANTAGONISTS/INVERSE AGONISTS AND USES THEREOF” (Corbus Pharmaceuticals, Inc., priority 2022, published 2025).

Key:
[1] = target: Human CB1 Receptor-1b (hCB1b) (Homo sapiens (Human), UniProt P21554); assay: hCB1b Gai cyclic AMP (cAMP) TR-FRET assay, antagonism of EC80 CP55940 with forskolin; type: cell-based; conditions: hCB1b cells, 30 min pre-incubation, read-out: CB1b IC50
Experimental: (§1) Example 3. Biochemical Methods Human CB1 Receptor-1 (hCB1) and Human CB1 Receptor-1b (hCBib)
(§2) hCB1/hCB1 b Gai Cyclic AMP (cAMP) Assays: Cells were seeded in a 384-well plate at an appropriate density from frozen cells. The cAMP assays were performed according to the manufacturer's protocol using MULTISCREEN™ TR-FRET cAMP 1.0 No Wash Assay Kit. Cells (hCB1 or hCB1 b) were pre-incubated with customer compounds for 30 minutes at rt followed by addition of EC80 CP55940 concentration and Forskolin. Cells were then incubated for 20 minutes at 37C. The reaction was terminated by sequentially adding sequentially adding MULTISCREEN™ Eu-labeled cAMP and MULTISCREEN™ 650-labeled anti-cAMP antibody in lysis buffer. The plate was then incubated at rt for 30 minutes before reading fluorescent emissions at 620 nm and 665 with excitation at 314 nm on FlexStation III (Molecular Devices). The results are shown in Table 2 (“***” denotes an IC50<100 nM; “**” denotes an IC50 between 100 nM and 500 nM, and “*” denotes an IC50>500 nM).

[2] = target: Human CB1 Receptor-1 (hCB1) (Homo sapiens (Human), UniProt P21554); assay: hCB1 Gai cyclic AMP (cAMP) TR-FRET assay, antagonism of EC80 CP55940 with forskolin; type: cell-based; conditions: hCB1 cells, 30 min pre-incubation
Experimental: as §1, §2

Chain of Human CB1 Receptor-1b (hCB1b) (P21554 other isoform, or with tags, fused parts or gaps): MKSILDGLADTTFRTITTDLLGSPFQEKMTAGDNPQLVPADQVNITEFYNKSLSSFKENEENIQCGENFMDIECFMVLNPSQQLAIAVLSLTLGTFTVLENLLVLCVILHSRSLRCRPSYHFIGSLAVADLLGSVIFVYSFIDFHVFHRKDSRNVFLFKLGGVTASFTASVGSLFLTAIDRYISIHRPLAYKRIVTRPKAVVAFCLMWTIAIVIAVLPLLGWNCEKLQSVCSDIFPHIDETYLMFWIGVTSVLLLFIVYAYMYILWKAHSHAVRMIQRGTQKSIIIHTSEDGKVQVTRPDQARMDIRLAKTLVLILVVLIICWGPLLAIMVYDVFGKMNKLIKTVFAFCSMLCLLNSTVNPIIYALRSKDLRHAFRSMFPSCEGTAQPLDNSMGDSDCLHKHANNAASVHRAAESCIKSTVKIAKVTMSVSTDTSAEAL
Chain of Human CB1 Receptor-1 (hCB1) (P21554 whole entry): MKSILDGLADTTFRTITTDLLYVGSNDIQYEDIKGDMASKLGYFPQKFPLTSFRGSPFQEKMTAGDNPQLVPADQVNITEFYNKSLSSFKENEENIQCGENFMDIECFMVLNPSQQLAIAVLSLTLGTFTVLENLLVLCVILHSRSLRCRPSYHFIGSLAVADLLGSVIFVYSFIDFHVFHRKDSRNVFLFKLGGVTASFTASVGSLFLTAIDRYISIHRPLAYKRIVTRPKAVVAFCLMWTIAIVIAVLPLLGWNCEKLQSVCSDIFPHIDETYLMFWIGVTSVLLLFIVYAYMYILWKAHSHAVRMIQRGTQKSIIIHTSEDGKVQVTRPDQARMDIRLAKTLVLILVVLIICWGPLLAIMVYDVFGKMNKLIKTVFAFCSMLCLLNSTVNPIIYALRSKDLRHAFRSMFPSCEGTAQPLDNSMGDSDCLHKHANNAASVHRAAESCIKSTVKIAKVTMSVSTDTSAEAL

Structure (SMILES)	IC50 [1] [nM]	IC50 [2] [nM]
C[C@H](CN/C(=N\S(=O)(=O)c1ccc(C(F)(F)F)cc1)N1C[C@H](c2ccccc2)C(c2ccc(F)cc2)=N1)S(N)(=O)=O (single isomer, unassigned) [Compound 47]	< 100	< 100
C[C@H](CS(N)(=O)=O)N/C(=N\S(=O)(=O)c1ccc(C(F)(F)F)cc1)N1C[C@H](c2ccccc2)C(c2ccc(Cl)cc2)=N1 [Compound 23, (S,E)-3-(4-chlorophenyl)-4-phenyl-N-((R)-1-sulfamoylpropan-2-yl)-N′-((4-(trifluoromethyl)phenyl)sulfonyl)-4,5-dihydro-1H-pyrazole-1-carboximidamide]	100 to 500	100 to 500
NS(=O)(=O)O[C@H]1C[C@@H](N/C(=N\S(=O)(=O)c2ccc(C(F)(F)F)cc2)N2C[C@H](c3ccccc3)C(c3ccc(Cl)cc3)=N2)C1 [Compound 227, (1R,3s)-3-((S,E)-3-(4-chlorophenyl)-4-phenyl-N′-((4-(trifluoromethyl)phenyl)sulfonyl)-4,5-dihydro-1H-pyrazole-1-carboximidamido)cyclobutyl sulfamate]	–	100 to 500
NS(=O)(=O)N[C@H]1C[C@H](N/C(=N\S(=O)(=O)c2ccc(Cl)cc2)N2C[C@H](c3ccccc3)C(c3ccc(Cl)cc3)=N2)C1 (single isomer, unassigned) [Compound 241]	< 100	100 to 500
C#Cc1ccccc1S(=O)(=O)N=C(NCCS(N)(=O)=O)N1C[C@H](c2ccccc2)C(c2ccc(Cl)cc2)=N1 [Compound 33, (S)-3-(4-chlorophenyl)-N′-((2-ethynylphenyl)sulfonyl)-4-phenyl-N-(2-sulfamoylethyl)-4,5-dihydro-1H-pyrazole-1-carboximidamide]	–	100 to 500
NS(=O)(=O)[C@H]1C[C@@H](N/C(=N/S(=O)(=O)c2ccc(Cl)cc2)N2C[C@H](c3ccccc3)C(c3ccc(F)cc3)=N2)C1 (single isomer, unassigned) [Compound 129]	> 500	> 500
C[C@H](CN/C(=N\S(=O)(=O)c1ccc(Cl)cc1)N1C[C@H](c2ccccc2)C(c2ccc(Cl)cc2)=N1)S(N)(=O)=O [Compound 5, (S,E)-3-(4-chlorophenyl)-N′-((4-chlorophenyl)sulfonyl)-4-phenyl-N-((R)-2-sulfamoylpropyl)-4,5-dihydro-1H-pyrazole-1-carboximidamide]	100 to 500	< 100
C[C@@H](CS(N)(=O)=O)N/C(=N\S(=O)(=O)c1ccc(C(F)(F)F)cc1)N1C[C@@H](c2ccccc2)C(c2ccc(Cl)cc2)=N1 [Compound 26, (R,E)-3-(4-chlorophenyl)-4-phenyl-N-((S)-1-sulfamoylpropan-2-yl)-N′-((4-(trifluoromethyl)phenyl)sulfonyl)-4,5-dihydro-1H-pyrazole-1-carboximidamide]	100 to 500	< 100
NS(=O)(=O)[C@@H]1CC[C@@H](N/C(=N/S(=O)(=O)c2ccc(Cl)cc2)N2C[C@H](c3ccccc3)C(c3ccc(Cl)cc3)=N2)C1 (single isomer, unassigned) [Compound 141]	100 to 500	100 to 500
NS(=O)(=O)[C@@H]1CC[C@H](N/C(=N/S(=O)(=O)c2ccc(Cl)cc2)N2C[C@H](c3ccccc3)C(c3ccc(F)cc3)=N2)C1 [Compound 149, (S,Z)-N′-((4-chlorophenyl)sulfonyl)-3-(4-fluorophenyl)-4-phenyl-N-((1S,3R)-3-sulfamoylcyclopentyl)-4,5-dihydro-1H-pyrazole-1-carboximidamide]	100 to 500	100 to 500
NS(=O)(=O)C1CCN(/C(=N/S(=O)(=O)c2ccc(Cl)cc2)N2C[C@H](c3ccccc3)C(c3ccc(Cl)cc3)=N2)CC1 [Compound 113, (S,Z)-1-((3-(4-chlorophenyl)-4-phenyl-4,5-dihydro-1H-pyrazol-1-yl)(((4-chlorophenyl)sulfonyl)imino)methyl)piperidine-4-sulfonamide]	> 500	> 500
NS(=O)(=O)[C@@H]1CC[C@@H](N/C(=N/S(=O)(=O)c2ccc(Cl)cc2)N2C[C@H](c3ccccc3)C(c3ccc(F)cc3)=N2)C1 [Compound 153, (S,Z)-N′-((4-chlorophenyl)sulfonyl)-3-(4-fluorophenyl)-4-phenyl-N-((1R,3R)-3-sulfamoylcyclopentyl)-4,5-dihydro-1H-pyrazole-1-carboximidamide]	< 100	100 to 500
CC(CN/C(=N\S(=O)(=O)c1ccc(Cl)cc1)N1C[C@H](c2ccccc2)C(c2ccc(Cl)cc2)=N1)NS(N)(=O)=O (stereo partly drawn) [Compound 185, (4S,E)-3-(4-chlorophenyl)-N′-((4-chlorophenyl)sulfonyl)-4-phenyl-N-(2-(sulfamoylamino)propyl)-4,5-dihydro-1H-pyrazole-1-carboximidamide]	< 100	100 to 500
CN(CCNS(N)(=O)=O)/C(=N\S(=O)(=O)c1ccc(Cl)cc1)N1C[C@H](c2ccccc2)C(c2ccc(Cl)cc2)=N1 [Compound 173, (S,E)-3-(4-chlorophenyl)-N′-((4-chlorophenyl)sulfonyl)-N-methyl-4-phenyl-N-(2-(sulfamoylamino)ethyl)-4,5-dihydro-1H-pyrazole-1-carboximidamide]	100 to 500	100 to 500
CN1CCN(S(=O)(=O)CCN/C(=N\S(=O)(=O)c2ccc(Cl)cc2)N2C[C@H](c3ccccc3)C(c3ccc(Cl)cc3)=N2)CC1 [Compound 157, (S,E)-3-(4-chlorophenyl)-N′-((4-chlorophenyl)sulfonyl)-N-(2-((4-methylpiperazin-1-yl)sulfonyl)ethyl)-4-phenyl-4,5-dihydro-1H-pyrazole-1-carboximidamide]	100 to 500	< 100
NS(=O)(=O)[C@H]1CC[C@@H](N/C(=N/S(=O)(=O)c2ccc(Cl)cc2)N2C[C@H](c3ccccc3)C(c3ccc(F)cc3)=N2)C1 [Compound 147, (S,Z)-N′-((4-chlorophenyl)sulfonyl)-3-(4-fluorophenyl)-4-phenyl-N-((1R,3S)-3-sulfamoylcyclopentyl)-4,5-dihydro-1H-pyrazole-1-carboximidamide]	100 to 500	100 to 500
NS(=O)(=O)NCCN/C(=N\S(=O)(=O)c1ccc(Cl)cc1)N1C[C@H](c2ccccc2)C(c2ccc(Cl)cc2)=N1 [Compound 183, (S,E)-3-(4-chlorophenyl)-N′-((4-chlorophenyl)sulfonyl)-4-phenyl-N-(2-(sulfamoylamino)ethyl)-4,5-dihydro-1H-pyrazole-1-carboximidamide]	< 100	< 100
NS(=O)(=O)O[C@H]1C[C@@H](N/C(=N\S(=O)(=O)c2ccc(C(F)(F)F)cc2)N2C[C@@H](c3ccccc3)C(c3ccc(Cl)cc3)=N2)C1 [Compound 228, (1R,3s)-3-((R,E)-3-(4-chlorophenyl)-4-phenyl-N′-((4-(trifluoromethyl)phenyl)sulfonyl)-4,5-dihydro-1H-pyrazole-1-carboximidamido)cyclobutyl sulfamate]	< 100	> 500
C[C@@H](CN/C(=N\S(=O)(=O)c1ccc(F)cc1)N1C[C@H](c2ccccc2)C(c2ccc(Cl)cc2)=N1)S(N)(=O)=O [Compound 13, (S,E)-3-(4-chlorophenyl)-N′-((4-fluorophenyl)sulfonyl)-4-phenyl-N-((S)-2-sulfamoylpropyl)-4,5-dihydro-1H-pyrazole-1-carboximidamide]	< 100	< 100
NS(=O)(=O)[C@H]1CC[C@@H](N/C(=N/S(=O)(=O)c2ccc(Cl)cc2)N2C[C@H](c3ccccc3)C(c3ccc(Cl)cc3)=N2)CC1 (single isomer, unassigned) [Compound 119]	> 500	> 500
NS(=O)(=O)CCNC(=NS(=O)(=O)c1cccnc1)N1C[C@H](c2ccccc2)C(c2ccc(Cl)cc2)=N1 [Compound 65, (S)-3-(4-chlorophenyl)-4-phenyl-N′-(pyridin-3-ylsulfonyl)-N-(2-sulfamoylethyl)-4,5-dihydro-1H-pyrazole-1-carboximidamide]	< 100	< 100
C[C@H](CN/C(=N\S(=O)(=O)c1ccc(C(F)(F)F)cc1)N1C[C@H](c2ccccc2)C(c2ccc(Cl)cc2)=N1)S(N)(=O)=O [Compound 17, (S,E)-3-(4-chlorophenyl)-4-phenyl-N-((R)-2-sulfamoylpropyl)-N′-((4-(trifluoromethyl)phenyl)sulfonyl)-4,5-dihydro-1H-pyrazole-1-carboximidamide]	> 500	< 100
NS(=O)(=O)[C@H]1CC[C@H](N/C(=N/S(=O)(=O)c2ccc(Cl)cc2)N2C[C@H](c3ccccc3)C(c3ccc(F)cc3)=N2)CC1 (single isomer, unassigned) [Compound 125]	100 to 500	100 to 500
NS(=O)(=O)[C@H]1C[C@H](N/C(=N/S(=O)(=O)c2ccc(Cl)cc2)N2C[C@H](c3ccccc3)C(c3ccc(Cl)cc3)=N2)C1 (single isomer, unassigned) [Compound 115]	< 100	< 100
NS(=O)(=O)[C@H]1CC[C@H](N/C(=N/S(=O)(=O)c2ccc(Cl)cc2)N2C[C@H](c3ccccc3)C(c3ccc(F)cc3)=N2)C1 [Compound 151, (S,Z)-N′-((4-chlorophenyl)sulfonyl)-3-(4-fluorophenyl)-4-phenyl-N-((1S,3S)-3-sulfamoylcyclopentyl)-4,5-dihydro-1H-pyrazole-1-carboximidamide]	< 100	100 to 500
